Reference: a melting point compilation (Tetko et al.; mined from patent text by program, amines drawn as free bases though some values may be those of a salt)

For `Cc1c(-c2ccc(O)cc2)n(Cc2ccc(/C=C/C(=O)N(C)C)cc2)c2ccc(O)cc12`, the melting point was 278 to 280 °C.
In the case of `CCOC(=O)CC=Cc1ccc2ccccc2c1O`, the melting point is reported as 83 to 84 °C.
Work on `O=C(NCc1ccccn1)c1cc(N2CCN(Cc3ccc(F)cc3)C2=O)n[nH]1` yielded a melting point of 235 to 237 °C.
`COc1cc2c(Nc3ccc(Sc4ccccn4)c(Cl)c3)c(C#N)cnc2cc1F` gave a melting point of 225 to 228 °C.
`COc1ccc(-c2nc3ccc(C(=O)O)cc3nc2-c2ccc(OC)cc2)cc1` gave a melting point of 284 to 285 °C.
`c1nc(Nc2ccc(N3CCOCC3)cc2)cc(NC2CCCCC2)n1` showed a melting point of 239 to 240 °C.
Molecule `CCC1=CC(Cl)(NC2CCC(C(C(=O)OC)C(=O)OC)CC2)NC=N1` (configuration not stated) has a melting point of 82 to 83 °C.
`COC(=O)C1=C(C)NC(C)=C(C#N)C1c1cccc2ncc(-c3ccccc3)cc12` (configuration not stated) showed a melting point of 242 °C.
Molecule `O=C(N[C@H]1CC[C@H](CCN2CCN(c3nccc4c3OCC4)CC2)CC1)C1CCC1` has a melting point of 186 °C.
Molecule `O=C(c1ccncc1)N1CCN=C1Nc1c(Cl)cccc1Cl` has a melting point of 82.5 to 83.5 °C.
For `CN(C)c1nc2c(c(=O)[nH]1)CC(S(=O)(=O)c1ccccc1)CC2` (configuration not stated), the melting point was 249 °C.
In the case of `C=CCN1C2C=C(c3cc4ccccc4s3)CC1CC2` (configuration not stated), the melting point is reported as 60.6 to 62.6 °C.
Work on `CCCC(Cl)C(=O)c1ccccc1` (configuration not stated) yielded a melting point of 71 to 72 °C.
Work on `COc1ccc2nc(COc3ccc(CC(Nc4ccccc4C(=O)c4ccccc4)C(=O)O)cc3)n(C)c2c1` (configuration not stated) yielded a melting point of 140 to 146 °C.
`CCCCc1oc2ccccc2c1-c1ncc(-c2ccc3cc(OCc4ccc(C(=O)O)cc4C(=O)O)ccc3c2)o1` showed a melting point of 285 to 287 °C.
In the case of `Cc1c(Cc2ccccc2)c(=O)n(Cc2ccc(F)cc2)c2cc(OCc3nnn[nH]3)cc(OCc3nnn[nH]3)c12`, the melting point is reported as 126 to 132 °C.
Work on `O=c1c2cc(Cl)ccc2nc(C(S)c2ncnc3[nH]cnc23)n1-c1ccccc1Cl` (configuration not stated) yielded a melting point of 237 to 238 °C.
Molecule `CC(NC(=O)Cc1cc(F)cc(F)c1)C(=O)NC1C(=O)N(C)C(c2ccccc2)c2ccccc21` (configuration not stated) has a melting point of 115 °C.
`O=C(O)CCCCCCc1ccc(CCNC(=O)c2ccc(Cl)cc2)cc1` showed a melting point of 140 to 143 °C.
With `O=C(C1CCCC1)N1c2ccccc2CCC1CN1CCN(c2cccc3[nH]ccc23)CC1` (configuration not stated) the melting point was 150 to 153 °C.
For `CN1CCN(c2cccc3ccc(-n4cnc5ncccc54)cc23)CC1`, the melting point was 107 to 112 °C.
`CC(C)C1=NCCSC1=NOC(=O)N(C)SN1CCOCC1` showed a melting point of 127 to 128 °C.
Work on `O=C(Nc1cccc2c1C(=O)c1c-2n[nH]c1-c1ccc(N2CCC(N3CCCCC3)CC2)cc1)NN1CCOCC1` yielded a melting point of 233 °C.
Work on `CCCCCCCCCCOc1ccc(C(=O)c2ccc(OC(=O)[C@H]3CCCO3)cc2)cc1` yielded a melting point of 80 °C.
With `C=C(C)SC1C(NC(=O)COc2ccccc2)C(=O)N1C=O` (configuration not stated) the melting point was 156 to 158 °C.
Molecule `CCC(CC)c1ccc(C(F)(F)F)c2[nH]c(=O)n(C)c12` has a melting point of 205 to 206 °C.
For `N#Cc1cccc(CNc2cc(C(N)=O)c([N+](=O)[O-])cc2[N+](=O)[O-])c1`, the melting point was 228 to 230 °C.
With `CN1CCC(Oc2cccc(Cn3cnc4cc(-c5ccc(Cl)cc5)sc4c3=O)n2)CC1` the melting point was 202 to 203 °C.
With `CCOC(=O)c1ccc(-c2nc(COc3ccc(C=O)cc3OC)c(C)o2)s1` the melting point was 155 to 156 °C.
Molecule `O=C(NC1CN2CCC1CC2)c1ccccc1Cc1ccccc1` (racemic) has a melting point of 187 to 188 °C.
Molecule `Clc1ccc(C2(Cn3ccnc3)OCC(CCc3ccccc3)O2)c(Cl)c1` (configuration not stated) has a melting point of 118 °C.
Work on `COc1cc2c(nc1OC)c(-c1cc3c(Cl)c(F)cnc3[nH]1)cn2CCN1CCOCC1` yielded a melting point of 206 °C.
`N#Cc1cc([N+](=O)[O-])ccc1OC1CCCCC1` showed a melting point of 97 to 98 °C.
`CCCCCCCCCCCCCCC[C@@H](O)[C@@H](NCc1ccccc1)C(=O)O` gave a melting point of 132 °C.
In the case of `CCOC(=O)C1CCN(c2ccc(/C=C/C(=O)O)cc2)CC1`, the melting point is reported as 212 °C.
`CC(C)NC1=NS(=O)(=O)c2cc(C(C)(C)C)ccc2N1` showed a melting point of 128 to 130 °C.
For `COC(=O)c1cc(N)c(Cl)c(S(=O)(=O)n2cccc2)c1`, the melting point was 178 to 181 °C.
Molecule `CC(C)(C)OC(=O)NCCCc1ccccc1O` has a melting point of 75 to 77 °C.
`Cc1c(N2C(=O)C[C@H](O)[C@@H]2C)ccc(C#N)c1Cl` showed a melting point of 172 to 173 °C.
`COC(=O)C=Cc1ccc(OCC(C)NCC(O)c2cccc(Cl)c2)cc1` (configuration not stated) showed a melting point of 97 to 103 °C.
With `O=C(O)C(=O)c1ccc(CCCOc2ccc3ccccc3c2)cc1` the melting point was 151 to 154 °C.
`Cc1c2c(cc3ccc(O)cc13)-c1ccc(O)cc1CO2` gave a melting point of 224 to 226 °C.
With `CCOc1ccc(C23CC2CN(C=O)C3)cc1` (configuration not stated) the melting point was 48 to 51 °C.
In the case of `Cc1ccc(Nc2nc(-c3ccccn3)cs2)nc1`, the melting point is reported as 184 to 190 °C.
For `O=C(O)COc1cccc2c1CCc1sc(SCc3ccccc3)nc1-2`, the melting point was 180 to 182 °C.
With `CN1CCCCc2cc([N+](=O)[O-])ccc21` the melting point was 52 to 54 °C.
For `CCO/C(=C(/Oc1ccc(-c2ccc(Cl)cc2)cc1)n1ccnc1)C(C)(C)C`, the melting point was 112 to 113 °C.
`O=C(O)c1ccc(-c2ccc3oc([N+](=O)[O-])c(-c4ccccc4)c3c2)cc1` gave a melting point of 259 to 261 °C.
`O=C(O)COc1cccc(-n2nc(-c3ccc(F)cc3)c3cccnc32)c1` gave a melting point of 225 to 226 °C.
`O=C(O)C1=Cc2cc(Cl)cc(-c3ccco3)c2OC1C(F)(F)F` (configuration not stated) showed a melting point of 172 to 173 °C.
For `CCCCCC(CC(=O)Nc1cc(C(N)=O)ccc1C(C)(C)C)c1ccc(OC)cc1OC` (single isomer, unassigned; (+)), the melting point was 152 °C.
For `NS(=O)(=O)c1cc2c3c(ccc2cc1[N+](=O)[O-])N(C(=O)C(F)(F)F)CC3CCl` (configuration not stated), the melting point was 192 to 195 °C.
With `COc1cccc(-c2nn(-c3ccccc3)c(-c3cccc(OC)c3)c2CC(=O)O)c1` the melting point was 129 to 131 °C.
`O=[N+]([O-])c1cc2nc(O)c(O)nc2c2nccnc12` showed a melting point greater than 300 °C.
For `O=C1NC(C(=O)NCCCO[N+](=O)[O-])CS1` (configuration not stated), the melting point was 83 to 85 °C.
With `CCCCOc1ccc(-c2ccc(-c3ccc(-c4ccc(-c5ccc(OCCCC)cc5)s4)c4nsnc34)s2)cc1` the melting point was 330 to 331 °C.
In the case of `CCCCC(CC(=O)Nc1cc(C(N)=O)ccc1C(C)(C)C)c1ccc(OCCCS(=O)(=O)CCC)cc1OC` (configuration not stated), the melting point is reported as 108 to 128 °C.
`O=C1c2cc(Cl)ccc2-c2ccccc2CN1CCBr` gave a melting point of 94 to 97 °C.
In the case of `Cc1onc(-c2ccccc2Cl)c1CCC(=O)O`, the melting point is reported as 79 to 81 °C.
`Cc1ccc(-c2cc(C(F)(F)F)n3ncc(-c4ccncc4)c3n2)cc1C(F)(F)F` gave a melting point of 218 °C.
`O=CC12CC(c3ccccc31)c1ccc(Cl)cc12` (configuration not stated) gave a melting point of 91 to 92 °C.
`CCOC(=O)CCc1cn(-c2ccc(C(F)(F)F)cn2)nc1C` showed a melting point of 50 to 51 °C.
`Cn1ncc2c1CCC(=CO)C2=O` gave a melting point of 93 to 95 °C.
In the case of `CCc1nc2c(N)nc3ccccc3c2n1CCCS(=O)(=O)N(C)C`, the melting point is reported as 209 to 211 °C.
With `C=CCN1C(=O)N(c2ccc([N+](=O)[O-])c(C(F)(F)F)c2)C(=O)C1(C)C` the melting point was 105 °C.
In the case of `O=C1NCCNC1c1cn(Cc2ccc(Cl)cc2)c2ccccc12` (configuration not stated), the melting point is reported as 195 °C.
For `CCOC(=O)c1csc(/C=C/c2cccc(N)c2)n1`, the melting point was 112 to 113 °C.
`CCOC(=S)c1sc(Cl)nc1C(F)(F)F` gave a melting point of 28 to 32 °C.
With `COC(=S)c1ccncc1Cc1ccccc1` the melting point was 79 to 80 °C.
In the case of `OCC1OC(n2c(Br)nc3cc(Cl)c(Cl)cc32)CC1O` (configuration not stated), the melting point is reported as 187 to 188 °C.
For `N#Cc1cnn2c1N(C(=O)CI)CC=C2c1cccc(C(F)(F)F)c1`, the melting point was 158 to 160 °C.
`CC(C)n1c(=O)[nH]c2cccc(OCc3ccccc3)c21` gave a melting point of 224 °C.
In the case of `N#CCCN1C(=O)C(O)(c2cccc(Cl)c2)c2ccccc21` (configuration not stated), the melting point is reported as 149 to 150 °C.
For `CCOC(C)n1cnc(-c2ccc(F)cc2)c1-c1ccc(F)cc1` (configuration not stated), the melting point was 105 to 107 °C.
In the case of `CC(=O)SC(C)CC(=O)N1CCC[C@H]1C(=O)O` (some centres not stated), the melting point is reported as 175 to 176 °C.
Molecule `CCC(=O)N(CC)c1cccc(C(=O)C=CN(C)C)c1` has a melting point of 105 to 107 °C.
With `CCOC(=O)N[C@H]1CC=C[C@H]2CNC(=O)[C@H]12` (racemic) the melting point was 160 to 164 °C.
In the case of `O=C(CSc1ccc(C(F)(F)F)cc1C(=O)O)c1ccccc1`, the melting point is reported as 128 to 130 °C.
Work on `CCCCCCCC1CC(C(=O)O)C(=O)O1` (configuration not stated) yielded a melting point of 51 to 54 °C.
With `C[C@@H]1[C@H](c2ccccc2)OC(=O)N1C(=O)CCC(F)(F)F` the melting point was 93 to 95 °C.
Work on `N#Cc1ccccc1N=Nc1ccc(O)cc1` yielded a melting point of 201 to 203 °C.
Molecule `O=C(Cn1c(=O)oc2ccc(Cl)cc21)c1ccc(C(F)(F)F)cc1` has a melting point of 188 to 189 °C.
`NS(=O)(=O)c1ccsc1` showed a melting point of 187 to 190 °C.
With `CC(=O)c1c(Cl)cc(Cl)cc1OCC(=O)O` the melting point was 110 °C.
In the case of `O=C(CC(=O)C(F)(F)F)Nc1cc(-c2cccs2)n[nH]1`, the melting point is reported as 259 to 261 °C.
For `N#Cc1ncn2c(C(F)(F)F)cc(-c3cccc(C(F)(F)F)c3)nc12`, the melting point was 202 °C.
`COc1ccc2c(c1)C(=NOCCCN)c1c-2c(N2CCNCC2)nc2ccccc12` gave a melting point of 89 to 90 °C.
In the case of `CCOC(=O)[C@H](Cc1ccc([N+](=O)[O-])cc1)NC(=O)c1ccccc1`, the melting point is reported as 99 to 101 °C.
In the case of `COC(=O)CS(=O)(=O)NOC[C@@H]1NC(=O)[C@@H]1NC(=O)OC(C)(C)C` (relative stereo), the melting point is reported as 128 to 129 °C.
Molecule `CONC(C(C)=O)c1cc(-n2c(=O)cc(C(F)(F)F)n(C)c2=O)ccc1Cl` (configuration not stated) has a melting point of 160 to 161 °C.
With `N[C@H](Cc1cccc(C(=O)c2ccccc2)c1)C(=O)O` the melting point was 230 to 231 °C.
With `CC1Oc2cc3nc(S)[nH]c3cc2O1` the melting point was greater than 300 °C.
Molecule `CSC(=NC#N)NCCSc1ncccc1C(=O)c1ccccc1` has a melting point of 180 to 181 °C.
Molecule `Clc1ccc(-n2nc3c(c2Br)CCC3)cc1` has a melting point of 109 to 112 °C.
Molecule `CCOC(=O)c1cn(CCF)c2nc(SCC)c(F)cc2c1=O` has a melting point of 271 to 273 °C.
Work on `CCCN1CCn2c(=S)[nH]c3cccc(c32)C1C` (configuration not stated) yielded a melting point of 179 °C.
Molecule `COC(=O)c1cccc(-c2nc(C(N)=O)c3[nH]c(=O)n(-c4ccccc4OC)c3n2)c1` has a melting point of 265 to 266 °C.
In the case of `COc1ccnc2c1C(=O)CC(c1ccccc1Cl)C2` (configuration not stated), the melting point is reported as 116 to 117 °C.
With `CC(O)(C#Cc1ccc(C(=O)c2ccccn2)cc1)C(F)(F)F` (configuration not stated) the melting point was 116 to 118 °C.
`Cc1ccc(-c2cnccn2)cc1` gave a melting point of 54 to 55 °C.
Molecule `NC1CCCN(c2ncc3ncnc(Nc4ccc(F)c(Cl)c4)c3n2)C1` (configuration not stated) has a melting point of 172 to 175 °C.
In the case of `CC(=O)NC1CCC(=O)c2sccc21` (configuration not stated), the melting point is reported as 160 to 164 °C.
